Test results taken from BindingDB's records for doi:10.1002/cbic.201100121 (Mcmaster University, 2011).

Molecular target: T1, Homoserine kinase (Escherichia coli (strain K12), UniProt P00547)
T1 sequence (P00547 whole entry): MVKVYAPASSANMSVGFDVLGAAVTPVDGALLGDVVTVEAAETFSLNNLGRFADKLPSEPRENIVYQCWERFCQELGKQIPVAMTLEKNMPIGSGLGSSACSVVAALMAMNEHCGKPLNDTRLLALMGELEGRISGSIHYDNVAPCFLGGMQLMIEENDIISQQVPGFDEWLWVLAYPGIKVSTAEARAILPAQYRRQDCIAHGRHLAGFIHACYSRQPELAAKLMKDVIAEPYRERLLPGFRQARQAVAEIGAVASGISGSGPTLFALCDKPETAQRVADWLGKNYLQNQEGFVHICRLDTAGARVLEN
Assay: Enzyme Inhibition Assay
Conditions: pH 7.5; 37 °C
Description: The phosphorylation of L-Hse was monitored by coupling the formation of ADP with pyruvate kinase and lactate dehydrogenase (PK/LDH). The resulting oxidation of NADH was monitored at 340 nm by using a SpectraMax plate reader in a 96-well format.

SMILES | Ki [µM]
C=CC(=O)c1ccc2ccccc2c1 [Thr1 inhibitor, 1] | 32
O=C1OC2C=CCC=C2C(=O)C1Cc1c(O)c2ccccc2oc1=O (stereo unspecified) [Thr1 inhibitor, 4] | 0.46
CC(=O)C(C#N)C(=O)Nc1cc(Br)ccc1Br (stereo unspecified) | 12
CC(C)Cc1nc2sc3c(c2c(=O)o1)CCCCC3 [Thr1 inhibitor, 5] | 35.8
O=C1C(O)c2cc(O)c(O)cc2OC1c1ccc(O)c(O)c1 (stereo unspecified) | 27.1
CC1NN(c2ccccc2)c2nc(C(F)(F)F)cc(O)c21 (stereo unspecified) [Thr1 inhibitor, 6] | 8.6
